Experiments:
Caco-2 cell monolayer = assay: DON-induced impairment of Caco-2 cell monolayer integrity (TEER, lucifer yellow flux); format: cell-based, human; conditions: 24 h pretreatment with 0.75 wt. % GL, then DON 4.2 μM 24 h; FIGS. 1A-D
Description: Caco-2 cells were used according to established methods. In brief: cells were cultured in Dulbecco's modified Eagle medium (DMEM) and seeded at a density of 0.3×10^5 cells into 0.3 cm^2 high pore density (0.4 μm) inserts with a polyethylene terephthalate membrane (BD Biosciences, Franklin Lakes, N.J., USA) placed in a 24-well plate. The Caco-2 cells were maintained in a humidified atmosphere of 95 air and 5% CO2 at 37° C.
Caco-2 cell monolayers were thus grown in a transwell system, which is a model for intestinal barrier function. The monolayers were pretreated for 24 h with different GLs, including beta3′-GL, alpha3′-GL, beta4′-GL and beta6′-GL in a concentration of 0.75 wt. % of the GL, before being exposed to the fungal toxin deoxynivalenol (DON), which is a trigger and model compound to impair intestinal barrier. DON was diluted to a final concentration of 4.2 μM in complete cell medium and added to the apical side as well as to the basolateral side of the transwell inserts. […] Incubation with DON was 24 h.
Measurements of the transepithelial electrical resistance (TEER) and lucifer yellow (LY) permeability were conducted to investigate barrier integrity. For TEER measurements a Millicel-ERS voltohmmeter connected to a pair of chopsticks electrodes was used to measure the TEER values. Results are expressed as a percentage of the initial value. For paracellular tracer flux assay the membrane impermeable lucifer yellow (LY) (Sigma, St Louis, Mo., USA) was added in a concentration of 16 μg/ml to the apical compartment in the transwell plate for 4 h, and the paracellular flux was determined by measuring the fluorescence intensity in the basolateral compartment with a spectrophotofluorimeter (FLUOstar Optima, BMG Labtech, Offenburg, Germany) set at excitation and emission wavelengths of 410 and 520 nm, respectively. Release of interleukin-8 (IL-8 or CXCL8), which is a typical marker for inflammation, was quantified in the medium of the apical side and the basolateral side of the Caco-2 transwell inserts in response to the treatments. CXCL8 concentrations were measured by using the human IL-8 ELISA assay (BD Biosciences, Pharmingem, San Diego, Calif., USA) according to manufacturer's instructions. For more details on materials and methods see Akbari et al, 2016, Eur J Nutr. 56(5):1919-1930.

[1] = tested on: T84 human intestinal epithelial cells; assay: T84 monolayer barrier integrity (TEER) with IL-4; format: cell-based
Description: T84 human intestinal epithelial cells are commonly used to study intestinal barrier integrity in vitro. T84 cells (ATCC, USA) were cultured on 12 mm transwell inserts (0.4 μm, Corning Costrar, USA) in DMEM-F12 glutamax with penicillin-streptomycin (100 IU/ml), supplemented with 5% FBS-Hl. T84 cells were used 14 days after reaching confluence. Monolayers of T84 cultured on transwell filters were pre-incubated for 48 h with or without butyrate. These samples were subsequently incubated for an additional 48 h in the presence of IL-4 (25 ng/ml). IL-4 was added to the basolateral compartment; medium and additives were changed every 24 h.
Epithelial barrier integrity was assessed by measuring transepithelial resistance (TEER; Ω×cm^2) with the epithelial volt-ohm meter (EVOM; World Precision Instruments, Germany).

[2] = tested on: human peripheral blood mononuclear cells (PBMC); assay: PBMC cytokine levels, unstimulated condition; format: cell-based
Excerpt: Isolation of PBMC from healthy donors: Human peripheral blood mononuclear cells (PBMC) from healthy donors were isolated from buffy coats (Sanquin, Amsterdam, the Netherlands). PBMC were obtained by centrifugation using Leucosep tubes (Greiner Bio-One). […] After lysis, the PBMC were resuspended in freezing medium (70% RPMI 1640 medium (Gibco, Thermo Fisher Technologies) supplemented with 10% heat-inactivated FCS and 100 U/ml penicillin-streptomycin, 20% heat-inactivated FCS and 10% DMSO (Sigma)) and cryopreserved. PBMC activation model: PBMC (0.2.10^6 cell/well) were cultured in 96-well flat bottom plates (Corning). For 24 hours the cells were pre-incubated with 2'-FL (Jennewein), 3'-GL (0-0.3% w/v; […] Sigma Aldrich) and combinations thereof. Subsequently, the cells were CD3/CD28-activated (Pelicluster CD3 and Pelicluster CD28, Sanquin) for an additional 24 hours. After incubation, IFNγ was measured by ELISA in the supernatants (see below). […] Roche) and/or 10% Triton (5 μl; negative control). […] Cytokine production of PBMC: PBMC were incubated with indicated reagents. After incubation, the supernatants were collected and IL2, IL6, IL10, IL13, IL21, TNFα, IFNγ, MIF, CCL1, CCL13, CCL17, CCL20, CCL22 and CXCL8-11 levels were measured by conducting a validated multiplex immunoassay based on Luminex technology (xMAP, Luminex Austin Tex. USA). Acquisition was conducted with the Biorad […] (Biorad laboratories, Hercules USA) in combination with xPONENT software version 4.2 (Luminex). Data was analyzed by 5-parametric curve fitting using Bio-Plex Manager software, version 6.1.1 (Biorad). After PBMC stimulation, cell culture supernatants were collected, after which cytokine responses were measured in order to test immune responsiveness of the cells. The levels of cytokines measured in stimulated conditions were corrected for the (low) levels of the cytokines measured in non-stimulated conditions. In addition, since each donor is reacting in its own efficiency onto the T cell stimulus, we calculated the individual index of cytokine response by dividing the intervention induced response by the basal stimulated response.

[3] = tested on: human peripheral blood mononuclear cells (PBMC); assay: PBMC cell activity (WST-1); format: cell-based; conditions: after 24 h
Description: PBMC activation model: PBMC (0.2.10^6 cell/well) were cultured in 96-well flat bottom plates (Corning). For 24 hours the cells were pre-incubated with 2′-FL (Jennewein), 3′-GL (0-0.3% w/v; […] Sigma Aldrich) and combinations thereof. Subsequently, the cells were CD3/CD28-activated (Pelicluster CD3 and Pelicluster CD28, Sanquin) for an additional 24 hours. After incubation, IFNγ was measured by ELISA in the supernatants (see below). […] Roche) and/or 10% Triton (5 μl; negative control).

## OC[C@H]1O[C@H](O[C@H]2[C@@H](O)[C@@H](CO)O[C@@H](O[C@H]3[C@H](O)[C@@H](O)C(O)O[C@@H]3CO)[C@@H]2O)[C@H](O)[C@@H](O)[C@H]1O (stereo partly drawn) [alpha3′-GL, Gal (alpha 1-3)-Gal (beta 1-4)-Glc, reference compound]
Caco-2 cell monolayer
  effect on DON-induced loss of epithelial barrier integrity (TEER, LY flux): did not prevent the DON-induced disrupted intestinal barrier

## OC[C@H]1O[C@@H](O[C@@H]2[C@H](O)[C@@H](O)[C@H](O[C@H]3[C@H](O)[C@@H](O)C(O)O[C@@H]3CO)O[C@@H]2CO)[C@H](O)[C@@H](O)[C@H]1O (stereo partly drawn) [beta4′-GL, Gal (beta 1-4)-Gal (beta 1-4)-Glc, reference compound]
Caco-2 cell monolayer
  effect on DON-induced loss of epithelial barrier integrity (TEER, LY flux): did not show a significant effect

## OC[C@H]1O[C@@H](OC[C@H]2O[C@@H](O[C@H]3[C@H](O)[C@@H](O)C(O)O[C@@H]3CO)[C@H](O)[C@@H](O)[C@H]2O)[C@H](O)[C@@H](O)[C@H]1O (stereo partly drawn) [beta6′-GL, Gal (beta 1-6)-Gal (beta 1-4)-Glc, reference compound]
Caco-2 cell monolayer
  effect on DON-induced loss of epithelial barrier integrity (TEER, LY flux): did not show a significant effect

## CCCC(=O)O [butyrate, butyric acid]
[1]
  IL-4 induced disruption of intestinal barrier function: ameliorated
[2]; 0.2% 2′-FL, 0.2 mM butyrate
  IL10 level compared to blanc control: did not have an effect on IL10 levels
[2]; unstimulated
  CCL20 level compared to blanc control: did not have a statistically significant effect
[3]
  Immune cell activity as measured by WST: did not influence immune cell metabolic activity

Source: patent US20220079962A1, “NUTRITIONAL COMPOSITION COMPRISING 2'FUCOSYLLACTOSE AND DIETARY BUTYRATE” (N.V. Nutricia, priority 2019, published 2022)
